Laboratory results published in patent publication US8865408B2, “Signature for the diagnosis of cancer aggressiveness and genetic instability” (Centre National de la Recherche Scientifique (CNRS), priority 2009, dated 2014).

Columns and labels:
MCF7 cells = assay: Clonogenic assay, sensitivity to Chk2 inhibitor; type: cell-based; conditions: MCF7 compared with MDA-MB231 cells, 1 μM to 150 μM during 16 hours, seven more days
Procedure: FIG. 12. Effect of POLQ gene expression level on sensitivity to a Chk2 inhibitor. […] Survival is determined in a clonogenic assay. MCF7: squares; MDA-MB231: diamonds (B) POLQ expression is higher in MCF7 than in MDA-MB231. Gene expression levels are assayed by RT-PCR. C51 is a normal breast cell line.
MDA-MB231 and MCF7 breast cancer cells (ATCC) were grown in RPMI 1640+ glutamax medium. A 13.8 mM Chk2 inhibitor II Hydrate (Sigma RefC3742) stock solution was prepared by diluting the agent in DMSO (Sigma) and stored at −20° C. This solution was diluted in culture medium to give as indicated the final drug concentration. Cells were exposed to different concentrations ranging from 1 μM to 150 μM during 16 hours. Cells were washed with PBS buffer, fresh medium was added and cells were incubated for seven more days. Cells were fixed with NaCl 0.9% and stained with crystal violet (Sigma C3886). Clones containing more than 20 cells were counted. For the clonogenic assay 400 cells were seeded in six-well plates and incubated overnight. The POLQ expression was measured by real-time PCR as described above.
Cells overexpressing POLQ accumulate DNA damage. […] In order to test this hypothesis, the viability of the MCF7 and MDA-MB231 cells was determined in the presence of increasing amounts of a Chk2 inhibitor. […]

[1] = tested on: POLQ overexpressing (Q1, Q2, Q3) and isogenic control (CTL2, CTL5) cells; assay: Clonogenic assay, sensitivity to alkylating agents; type: cell-based, human; conditions: POLQ over-expressing clones vs isogenic controls; MMS 1 h at 37° C., MNU continuous
Procedure: FIG. 9. Sensitivity to alkylating agents. Drug sensitivity was determined by clonogenic assay. Sensitivity of POLQ overexpressing (Q1, Q2, Q3) and isogenic control (CTL2, CTL5) cells to methyl methanesulfonate (MMS) and N-methyl-N-nitrosourea (MNU). Survival is expressed as the relative plating efficiency of treated cells to the controls. […] Results are the mean+/−SD of at least three separate experiments performed in duplicate.
POLQ overexpression was immuno-detected as published (Seki et al. Nucleic Acids Res 31: 6117-6126, 2003), using purified protein as a size control.
Treatment was 1 h at 37° C. for methyl methanesulfonate (MMS) and continuous for N-methyl-N-nitrosourea (MNU) Immunodetection of γ-H2AX and PT68-CHK2 was carried out according to Rao et al. (Rao et al. Mol Cancer Res 5:713-24, 2007).
A proposed role of POLQ in BER could be that over-expressed POLQ interferes with the BER pathway and leads to an accumulation of endogenous DNA damage (including damage generated by reactive oxygen species). To test this hypothesis, we measured the sensitivity of the POLQ over-expressing cells to methyl-methanesulfonate (MMS) and Nitroso-N-methylurea (MNU) (FIG. 9), both of which induce DNA damage repaired by BER.

SMILES	sensitivity to Chk2 inhibitor (survival in clonogenic assay) (MCF7 cells)	sensitivity to Chk2 inhibitor (survival in clonogenic assay) (MCF7 cells; listed as CHK2 inhibitor)	effect of POLQ over-expression on survival to treatment [1]
NC(=O)c1ccc2nc(-c3ccc(Oc4ccc(Cl)cc4)cc3)[nH]c2c1.O [Chk2 inhibitor II Hydrate]	higher sensitivity	hypersensitive	
CN(N=O)C(N)=O [MNU, N-methyl-N-nitrosourea]			did not significantly affect survival
COS(C)(=O)=O [MMS, methyl methanesulfonate]			did not significantly affect survival
